From the NIST ThermoML archive (doi:10.1021/je800999s)
± gives the expanded uncertainty stated by the source.

Test: molar heat capacity at constant pressure
Details: 101 kPa, Liquid, Large sample (1 g) DSC

molar heat capacity at constant pressure (303.15 K) [J/K/mol]	molar heat capacity at constant pressure (308.15 K) [J/K/mol]	molar heat capacity at constant pressure (313.15 K) [J/K/mol]	molar heat capacity at constant pressure (318.15 K) [J/K/mol]	molar heat capacity at constant pressure (323.15 K) [J/K/mol]	molar heat capacity at constant pressure (328.15 K) [J/K/mol]	molar heat capacity at constant pressure (333.15 K) [J/K/mol]	molar heat capacity at constant pressure (338.15 K) [J/K/mol]	molar heat capacity at constant pressure (343.15 K) [J/K/mol]	molar heat capacity at constant pressure (348.15 K) [J/K/mol]	molar heat capacity at constant pressure (353.15 K) [J/K/mol]	Compound
166 ± 7	167 ± 7	168 ± 7	169 ± 7	170 ± 7	172 ± 7	174 ± 7	175 ± 7	176 ± 7	177 ± 8	178 ± 8	CN1CCCC1=O [N-methylpyrrolidone]
359 ± 15	364 ± 15	366 ± 16	368 ± 16	370 ± 16	371 ± 16	373 ± 16	375 ± 16	379 ± 16	381 ± 16	382 ± 16	COCCOCCOCCOC [2,5,8,11-tetraoxadodecane]
182 ± 8	184 ± 8	185 ± 8	186 ± 8	188 ± 8	189 ± 8	191 ± 8	193 ± 8	194 ± 8	197 ± 8	199 ± 8	O=S1(=O)CCCC1 [sulfolane]
185 ± 8	186 ± 8	188 ± 8	189 ± 8	191 ± 8	193 ± 8	195 ± 8	197 ± 8	200 ± 9	201 ± 9	202 ± 9	O=CN1CCOCC1 [N-formylmorpholine]
